Data set [1] can be described thus: Deoxyribose degradation assay (hydroxyl radical scavenging). To be noted: NS = not statistically significant. The class given is biochemical. The essentials: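 Hydroxyl radicals from Fenton's reaction degrade 2-deoxyribose. Scavenging is measured as inhibition of this oxidation, read spectrophotometrically as pink chromogen absorbance at 532 nm.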
Data set [2] has as its system MDA-MB-231 triple negative breast cancer cells. Description: XTT cell growth assay, MDA-MB-231. The class given is cell-based, human. To be noted: NS = not statistically significant; for inhibition at 50 µM: Homo sapiens, MDA-MB-231, 24 h, read-out: Effectiveness to suppress MDA-MB-231 cell growth (cell growth inhibition). The procedure, abridged:
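Cells grown 24 h in DMEM, then exposed 24 h to 5, 10 and 50 μM compound in serum-free DMEM. Viability read by XTT reduction to formazan after 4 h, absorbance at 450 nm with 630 nm reference; serum-free DMEM alone as negative control.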
For orientation: Tetrazolium dyes change colour on reduction, which living cells bring about.

Data set [3] relates to MCF-7 ER+ breast cancer cells. Description: XTT cell growth assay, MCF-7 ER+. The class given is cell-based, human. To be noted: NS = not statistically significant; for inhibition at 50 µM: Homo sapiens, MCF7, 24 h, read-out: Effectiveness to suppress MCF7 cell growth (cell growth inhibition). The procedure, abridged:
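MCF-7 ER+ cells grown 24 h in DMEM, then given 5, 10 or 50 μM compound in serum-free DMEM for 24 h. XTT reagent added for 4 h. Absorbance read at 450 nm with 630 nm reference; serum-free DMEM alone as negative control.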

These results are taken from patent publication US12414960B2, “Analogues of oleuropein and oleacein and uses thereof” (Attica Sciences Ltd., priority 2020, dated 2025).

Usually inhibition stands for how much of the control response was suppressed. In the case of `C/C=C1/[C@H](OC2OC(CO)C(O)C(O)C2O)OC=C(C(=O)O)[C@H]1CC(=O)OCCc1ccc(O)c(O)c1` (stereo in doubt) [GS6, (2S,4S,E)-4-(2-(3,4-dihydroxyphenethoxy)-2-oxoethyl)-3-ethylidene-2{[(2R,3S,4R,5R,6S)-3,4,5-trihydroxy-6-(hydroxymethyl)tetrahydro-2H-pyran-2-yl]oxy}-3,4dihydro-2H-pyran-5-carboxylic acid], the “Deoxyribose Degradation Assay IC50” value in data set [1] is 41.9 μg extract/mL. Also, the inhibition at 50 µM in data set [2] is 45.3%; in data set [3], 24.8%.
For `C/C=C1/[C@H](O[C@@H]2O[C@H](CO)[C@@H](O)[C@H](O)[C@H]2O)OC=C(C(=O)OC)[C@H]1CC(=O)OCCc1ccc(O)c(O)c1` [GS1, oleuropein], the “Deoxyribose Degradation Assay IC50” value in data set [1] is on record as 80.8 μg extract/mL. The inhibition at 50 µM in data set [2] stood at 48.3%.
For `C/C=C(/C=O)[C@@H](CC=O)CC(=O)OCCc1ccc(O)c(O)c1` [GS17, (3S,4E)-4-formyl-3-(2-oxoethyl)-4-hexenoic acid 2-(3,4-dihydroxyphenyl)ethyl ester, reference compound], in data set [1], the “Deoxyribose Degradation Assay IC50” value turned out to be 21.7 μg extract/mL. Also, the results for the inhibition at 50 µM in data set [2] and in data set [3] were 47.6% and 35.2%, respectively.
In the case of `C/C=C(/C=O)[C@@H](CC=O)CC(=O)OCCc1ccc(O)cc1` [GS19, (3S,4E)-4-formyl-3-(2-oxoethyl)-4-hexenoic acid 2-(4-hydroxyphenyl)ethyl ester, reference compound], in data set [1], the “Deoxyribose Degradation Assay IC50” value is 31.9 μg extract/mL. Also, in data set [2], the inhibition at 50 µM worked out at 55%.
As for `C/C=C(/C=O)[C@@H](CC=O)CC(=O)OCCOc1ccccc1` [GS24, (3S,4E)-4-formyl-3-(2-oxoethyl)-4-hexenoic acid 2-phenoxyethyl ester], the “Deoxyribose Degradation Assay IC50” value in data set [1] was 16.1 μg extract/mL. The “Effectiveness to suppress MDA-MB-231 cell growth (cell growth inhibition)” value in data set [2] (50 uM, 24 h) is “highest suppressive activity”. For the same molecule, the inhibition at 50 µM came to 80.5% in data set [2] and 60.5% in data set [3].
For the molecule `C/C=C(/C=O)[C@@H](CC=O)CC(=O)OCCCCCCCCCCCCCCCC` [GS26, (3S,4E)-4-formyl-3-(2-oxoethyl)-4-hexenoic acid hexadecyl ester], the “Deoxyribose Degradation Assay IC50” value in data set [1] is recorded as 21.3 μg extract/mL. Further, the values for the inhibition at 50 µM in data set [2] and in data set [3] were 47.6% and 61%, respectively.
Consider `C/C=C(/C=O)[C@@H](CC=O)CC(=O)SCCc1ccccc1` [GS27, S-phenethyl (3S,4E)-4-formyl-3-(2-oxoethyl)hex-4-enethioate], for which the “Deoxyribose Degradation Assay IC50” value in data set [1] is given as 16.4 μg extract/mL. Besides, the inhibition at 50 µM is 61.4% in data set [2] and 83.2% in data set [3]. Besides, the “Effectiveness to suppress MCF7 cell growth (cell growth inhibition)” value in data set [3] (50 uM, 24 h) is “best efficacy”.
`C/C=C(/C=O)[C@@H](CC=O)CC(=O)OCCCSC` [GS28, (3S,4E)-4-formyl-3-(2-oxoethyl)-4-hexenoic acid 3-(methylthio)propyl ester]: the “Deoxyribose Degradation Assay IC50” value in data set [1] is recorded as 12.3 μg extract/mL. Also, the inhibition at 50 µM in data set [2] was 47.8%; in data set [3], 48.7%.
